The record followed here is paper PMC5007466, “VCP recruitment to mitochondria causes mitophagy impairment and neurodegeneration in models of Huntington's disease” (Nature Communications, 2016).

Experiment [1] addresses T1, full-length mouse VCP/p97 (Mus musculus, UniProt Q01853).
T1 construct: The full-length mouse VCP/p97 (residues 2–806) was expressed with an N-terminal 6xHis-tag; 6xHis (N); host or cells: Escherichia coli Rosetta (DE3)
The experiment in a line: Isothermal titration calorimetry (ITC). It is filed as binding. The settings on record: 15 °C. How it is done:
The full-length mouse VCP/p97 (residues 2–806) was expressed with an N-terminal 6xHis-tag (Addgene: plasmid # 12373) in the Rosetta (DE3) strain of Escherichia coli (Novagen) as previously described. Briefly, the cells were grown in LB media supplemented with Kanamycin and induced at OD∼1.0 for 16 h at 18 °C. Cells were homogenized in Buffer A (500 mM KCl, 25 mM Hepes pH 8.0, and 2 mM β-mercaptoethanol) in the presence of EDTA-free Complete Protease Inhibitor (Roche) and 2 mM PMSF. The lysate was cleared by centrifugation at 45,000 g for 1 h at 4 °C. Supernatant was incubated with 2 ml of Ni-NTA agarose resin (Qiagen) for 2 h at 4 °C. The resin was washed with Buffer A containing 50 mM imidazole and eluted with Buffer A containing 400 mM imidazole. VCP protein was further purified by passing through Superdex 200 increase 10/300 GL (GE Healthcare) size exclusion column equilibrated with Buffer B (250 mM KCL, 25 mM Hepes pH 8.0, 2 mM β-mercaptoethanol and 1 mM MgCl2). The fractions containing the pure sample, as determined by SDS–PAGE analysis, were pooled and concentrated to a final concentration of ∼3–5 mg ml^−1.
Binding of HV-3 peptide to VCP was measured by isothermal titration calorimetry on a MicroCal ITC200 (GE Healthcare). Before the calorimetric titrations, the protein was exchanged into Buffer C (100 mM NaCl, 10 mM Hepes, pH 8.0) on a PD-10 column (Amersham Biosciences) and concentrated to ∼5–6 mg ml^−1. The final concentration of protein in the cell (∼60–70 μM) was determined on a NanoDrop Spectrophotometer (Thermo Scientific NanoDrop 2000) using a molecular weight of 89.32 KDa and a molar extinction coefficient of […]. The HV-3 peptide was dissolved in Buffer C to a final concentration of 2 mM and loaded into the syringe. The measurements were made at a constant cell temperature of 15 °C and repeated at least three times. Thirty successive injections of 1.2 μl each were titrated into the cell with constant stirring at 1,000 r.p.m. An equilibration time of 150 s was set between consecutive injections. The binding isotherms were analysed with the MicroCal Origin software. For measurements of heat of dilution, the protein sample in the cell was replaced by Buffer C and all other conditions were kept identical.
For orientation: ITC needs no label: the signal is the heat of the interaction.

The subject of experiment [2] is HD mouse striatal cells. The experiment in a line: ER stress response (GRP78 western blot). To be noted: thapsigargin 1 μM or tunicamycin 10 μg/ml, 16 h, with HV-3 3 µM. Format: cell-based. How it is done:
mouse striatal cells were treated with thapsigargin (1μM) or tunicamycin (10μ g/ml) for 16 hours i n the presence or absence of HV -3 (3 µM). GRP78 total protein levels were determined by western blot analysis. Representative blots of three independent experiments are shown. Actin was used here as a loading control. (b) Tw e n t y -four hours of serum starvation was performed in HD mouse striatal cells.
Caspase-3 activity analysis was performed in the indicated groups. Data are mean ± SEM of three independent experiments. (c) Flag-VCP and GFP-LC3B were co-transfected into HdhQ7 striatal cells.
Total lysates were isolated after 36 hours of transfection. The GFP -LC3B levels were examined by western blot analysis. Actin was used as a loading control. Histogram: quantitation of GFP-LC3B total protein level. Data are mean ± SEM of three independent experiments.
(1 picture or pasted object on this page, not shown here)

Experiment [3] concerns R6/2 mice. The experiment in a line: Hindlimb clasping (tail suspension test). It is filed as in vivo, mouse. The settings on record: R6/2, 8 to 11 weeks of age, 3 mg kg^−1 per day, n=15, versus TAT. How it is done:
Male hemizygous R6/2 mice (Tg) and their age-matched wt littermates (5-week-old) were implanted with a 28-day osmotic pump (Alzet, Cupertino CA) containing TAT control peptide or HV-3 peptide, which delivered peptides to the mice at a rate of 3 mg kg^−1 per day. The first pump was implanted subcutaneously in the back of 5-week-old mice between the shoulders and replaced once, after 4 weeks.
Hindlimb clasping was assessed with the tail suspension test once a week from the ages 8 to 11 weeks in R6/2 mice. Mice were suspended by the tail for 60 s and the latency for the hindlimbs or all four paws to clasp was recorded using the score system[67]: Clasping over 10 s, score 3; 5–10 s, score 2; 0–5 s, score 1; 0 s, score 0.

Experiment [4] has as its system YAC128 mice. Kind of experiment: Stereology of NeuN-positive striatal neurons. Format: in vivo, mouse. To be noted: YAC128, 12 months of age, 3 mg/kg/day, n=6. How it is done:
YAC128 mice (Tg) and their age-matched wt littermates were implanted with an osmotic pump containing TAT control peptide or HV-3 peptide (3 mg/kg/day, each) starting from the age of 3 months. The pump was replaced once every month. By the age of 12 months, the treatments were terminated and the mouse samples were harvested for analysis.
To measure the number of NeuN-positive cells, a series of 25 μm thick coronal sections spaced 200 μm apart spanning the striatum were stained with NeuN antibody (Millipore, 1:500) and visualized by diaminobenzidine. For neuropathological analyses, brain sections were analysed stereologically. Briefly, unbiased stereological counts of NeuN-positive neurons within the striatum were performed using unbiased stereological principles and analysed with StereoInvestigator software (Microbrightfield, Williston, VT). Optical fractionator sampling was carried out on a Leica DM5000B microscope (Leica Microsystems, Bannockburn, IL) equipped with a motorized stage and Lucivid attachment ( × 40 objective). The following parameters were used in the final study: grid size, (X) 500 μm, (Y) 500 μm; Counting frame, (X) 68.2 μm, (Y) 75 μm, depth was 20 μm. […] The total volume of stratial tissue measured in each brain is calculated by StereoInvestigator and the neuronal density is presented as NeuN positive cell number per mm^3.

T1 sequence (Q01853 2-806): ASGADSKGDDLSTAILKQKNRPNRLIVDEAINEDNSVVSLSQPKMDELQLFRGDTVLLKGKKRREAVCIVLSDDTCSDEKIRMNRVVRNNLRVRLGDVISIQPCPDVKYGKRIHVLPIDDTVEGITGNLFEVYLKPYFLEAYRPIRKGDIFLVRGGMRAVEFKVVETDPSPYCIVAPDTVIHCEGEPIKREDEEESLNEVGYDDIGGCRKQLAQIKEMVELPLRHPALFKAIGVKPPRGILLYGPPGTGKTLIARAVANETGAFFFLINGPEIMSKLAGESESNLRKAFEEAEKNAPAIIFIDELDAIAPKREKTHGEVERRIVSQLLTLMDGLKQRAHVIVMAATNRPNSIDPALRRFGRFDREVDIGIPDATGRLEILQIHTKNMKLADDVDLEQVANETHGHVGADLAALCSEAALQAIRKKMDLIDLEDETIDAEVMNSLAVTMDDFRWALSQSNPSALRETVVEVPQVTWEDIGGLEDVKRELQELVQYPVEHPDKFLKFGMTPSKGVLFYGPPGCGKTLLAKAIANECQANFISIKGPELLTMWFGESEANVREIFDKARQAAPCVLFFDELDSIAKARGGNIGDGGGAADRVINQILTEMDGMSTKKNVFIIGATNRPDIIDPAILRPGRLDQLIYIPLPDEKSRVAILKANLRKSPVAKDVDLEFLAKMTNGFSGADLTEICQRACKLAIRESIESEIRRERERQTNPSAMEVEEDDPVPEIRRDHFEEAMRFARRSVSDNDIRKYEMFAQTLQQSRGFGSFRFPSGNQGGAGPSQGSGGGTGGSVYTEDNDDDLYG

A word on the Kd: it is the equilibrium constant for the complex coming apart. High values mean weaker binding, low ones tighter binding. In the case of `CSCC[C@H](NC(=O)[C@@H](NC(=O)[C@H](CC(C)C)NC(=O)[C@@H](NC(=O)[C@H](Cc1c[nH]cn1)NC(=O)CCCCCNC(=O)[C@H](CCCNC(=N)N)NC(=O)[C@H](CCCNC(=N)N)NC(=O)[C@H](CCCNC(=N)N)NC(=O)[C@H](CCC(N)=O)NC(=O)[C@H](CCCNC(=N)N)NC(=O)[C@H](CCCNC(=N)N)NC(=O)[C@H](CCCCN)NC(=O)[C@H](CCCCN)NC(=O)[C@H](CCCNC(=N)N)NC(=O)CNC(=O)[C@@H](N)Cc1ccc(O)cc1)C(C)C)C(C)C)C(=O)N[C@@H](CS)C(=O)N[C@@H](C)C(=O)N[C@H](C(N)=O)[C@@H](C)O` [HV-3], in experiment [1] (100 mM NaCl, 10 mM Hepes pH 8.0, protein ∼60–70 μM, HV-3 2 mM in syringe, repeated at least three times), the Kd worked out at 17.9 ± 7 µM. For the same compound, in experiment [1] (pH 8.0), the “n (stoichiometry)” value was 2.02±0.23, the ΔH was -2.145 ± 0.65 kcal/mol and the ΔS was determined as 13.97±3.4 cal mol^−1 deg^−1. Also, in experiment [2], the “ER stress response (GRP78)” value is recorded as “no effect on the ER stress response”. Further, the “severity of clasping behaviour” value in experiment [3] was “significantly lower over the 4-week observation period”. Further, in experiment [4], the “NeuN-positive neurons in dorsolateral striatum” value is “significantly increased the number of neurons positive for anti-NeuN immunostaining”.
